According to patent US20230414771A1, “PREPARATION AND USE OF IMMUNOSTIMULATORY CONJUGATED COMPLEXES FOR TARGETED DELIVERY AND ACTIVATION” (YAFEI SHANGHAI BIOLOGY MEDICINE SCIENCE & TECHNOLOGY CO., …, priority 2020, published 2023):
Where two headings read alike, the source gives them in different places. Where a SMILES comes first, the peptide text is derived from it. [ ]: non-standard residue; d: D form. The star is where a group is joined. Doxorubicin(3'-N) = COc1cccc2c1C(=O)c1c(O)c3c(c(O)c1C2=O)C[C@@](O)(C(=O)CO)C[C@@H]3O[C@H]1C[C@H](N*)[C@H](O)[C@H](C)O1; Thyronine(3,5,3'-I3) = N[C@@H](Cc1cc(I)c(Oc2ccc(O)c(I)c2)c(I)c1)C(=O)O; Hexanoyl(6-maleimido) = O=C1C=CC(=O)N1CCCCCC(=O)*; Propanoyl(3-maleimido) = O=C1C=CC(=O)N1CCC(=O)*; X1 = O=C1C=CC(=O)N1CCOCCOCCOCCC(=O)*; X3 = O=C1C=CC(=O)N1CCOCCOCCC(=O)*; PEG3 = NCCOCCOCCOCCC(=O)O

Assays:
M2 macrophages = assay: Cytotoxicity screening, inhibition rate of M2 macrophages at 10 uM; format: cell-based, C57BL/6 mice; details: 10 uM drug per well, 3 wells, relative to the drug-free group
Protocol: After the cell count in Example 13, the cell concentration was adjusted with the culture medium, and the cells were seeded in a 96-well culture plate at […] of cell suspension per well, wherein the seeding concentration of CD8+ T cells was 100000 cells/well, and the seeding concentration of M2 macrophages was 20000 cells/well. The 96-well plate was incubated overnight for 24 hour at 37° C. in a carbon dioxide (5%) incubator. After 24 hours, 100 ul of cell culture solutions containing different concentrations of drugs were added to the 96-well culture plate. At the same time, a control well (0.1% DMSO) with no drug added and only the corresponding drug solvent and a zero-adjusted well (Blank) with only medium and no cells added was set. Each set was prepared in triplicate and the plates were incubated for 48 hours at 37° C. in a 5% CO2 incubator. After 48 hours, 20 μl MTT (5 mg/ml) was added to each well and the incubation was continued for 4 hours. The culture medium was then gently aspirated, and 150 μl DMSO was added to each well as solvent for dissolution. After dissolution, the absorbance at 490 nm was measured with a microplate reader.
Cytotoxicity screening experiments for some compounds were performed for M2 macrophage inhibition as in embodiment 14.

[1] = Water solubility test (observation and HPLC); format: physicochemical; details: thermodynamic from solid
Protocol: The compounds prepared in accordance with the examples of the disclosure and the reference compounds C1, C2, C3 and C4 were lyophilized (−70° C.).

HT1080 tumors = assay: HT1080 tumor model in nude mice, 36 umol/kg; format: in vivo; details: for inhibition in vivo at 36 µmol/kg: Mus musculus, read-out: Tumor inhibition rate Day 28
Protocol: • 1. Animals: nude mice aged 6-8 weeks, all female. • 2. Preparation of tumor models • 1) HT1080 cells were purchased from ATCC and characterized according to the instructions provided. […] Randomization was performed when the tumor size reached 100 mm^3. Treatment was then initiated, and the day of initiation of treatment was counted as Day 1. • 3) Treatment process
According to the clinical application of the corresponding compound, the drug was administered intravenously (IV). The compounds indicated in the table were administered at a low dose and at the same dose of 36 umol/kg.

[2] = test system: Human hepatoma HepG2 cells; assay: Human liver cancer HepG2 tumors in nude mice; format: in vivo; details: for inhibition in vivo at 54 µmol/kg: HepG2, iv, 672 h
Protocol: • 1. Animals: nude mice aged 6-8 weeks, all female. • 2. Preparation of tumor models
Human hepatoma HepG2 cells were purchased from ATCC and identified according to the instructions provided. […] Randomization was performed when the tumor size reached 100 mm^3.
Treatment was then initiated, and the day of initiation of treatment was counted as Day 1. • 3) Treatment process
According to the clinical application of the corresponding compound, the drug was administered intravenously (IV). The compound and the control drug were administered at a dose of 54 umol/kg, and DOX could only be administered at a dose of 18 umol/kg due to toxicity limitations.

NAFLD model mice = assay: Nonalcoholic fatty liver disease (NAFLD) model mice, serum HDL-C and LDL-C; format: in vivo; details: NAFLD (high-fat diet) C57 mice, IV twice a week for 8 weeks, 12 hour after last administration, normal group 100%
Protocol: • Methods: C57 mice were randomly divided into normal group (standard diet), model group (high-fat diet), simvastatin group (positive control, 3 mg/kg) and drug group (50 mg/kg), with 6 mice in each group. The normal group was fed with standard diet, and the other groups were fed with high-fat diet to induce NAFLD model. At the same time of modeling, the mice in each group were given the corresponding dose of 48 umol/kg medicine IV twice a week for 8 weeks in total. 12 hour after the last administration, the serum biochemical indicators were determined by automatic biochemical analyzer: High density lipoprotein cholesterol (HDL-C), and low density lipoprotein (LDL-C).

[3] = 36 umol/kg IV once a week for 3 weeks
[4] = Mus musculus, read-out: Tumor inhibition rate (%) Day 28

For CC(NC(=O)CCCN1C(=O)C=CC1=O)C(=O)NC(C)C(=O)NC(CC(N)=O)C(=O)Nc1ccc(COC(=O)N2CC3(C2)C(=O)[O][Pt-2]([NH3+])([NH3+])[O]C3=O)cc1 (centres unmarked) [QHL-143-N-CBP], the “Inhibition rate of M2 macrophages” value (M2 macrophages) was 78.4% and the solubility [1] was over 10000 µg/mL.
In the case of COc1cccc2c1C(=O)c1c(O)c3c(c(O)c1C2=O)C[C@@](O)(C(=O)CO)C[C@@H]3O[C@H]1C[C@H](N)[C@H](O)[C@H](C)O1 [DOX, doxorubicin, reference compound], the inhibition at 10 µM (M2 macrophages; Mus musculus, Macrophage) was 12.6%, the “Tumor volume (mm^3) Day 28” value (HT1080 tumors; [3]) was 754.4 ± 587.4 mm^3 and the inhibition in vivo at 36 µmol/kg (HT1080 tumors; HT-1080, 672 h, 36 umol/kg IV once a week for 3 weeks) was 56.8%. The “Tumor volume (mm^3) Day 28” value ([2]; DOX 18 umol/kg IV (toxicity limitations)) was 1683.4 ± 1087.4 mm^3 and the inhibition in vivo at 18 µmol/kg ([2]; Mus musculus, HepG2, 672 h, DOX 18 umol/kg IV (toxicity limitations), read-out: Tumor inhibition rate (%) Day 28) was 41.9%.
With CC(NC(=O)CCCCCN1C(=O)C=CC1=O)C(=O)NC(C)C(=O)NC(CC(N)=O)C(=O)Nc1ccc(COC(=O)N2CC3(C2)C(=O)[O][Pt-2]([NH3+])([NH3+])[O]C3=O)cc1 (centres unmarked) [QHL-140-N-CBP] the “Inhibition rate of M2 macrophages” value (M2 macrophages) was 89.5% and the solubility [1] was over 10000 µg/mL.
For CC(NC(=O)CCOCCOCCOCCOCCNC(=O)CCN1C(=O)C=CC1=O)C(=O)NC(C)C(=O)NC(CC(N)=O)C(=O)Nc1ccc(COC(=O)N2CC3(C2)C(=O)[O][Pt-2]([NH3+])([NH3+])[O]C3=O)cc1 (centres unmarked) [QHL-092-N-CBP], the “Inhibition rate of M2 macrophages” value (M2 macrophages) was 75.8% and the solubility [1] was over 10000 µg/mL.
For COc1cccc2c1C(=O)c1c(O)c3c(c(O)c1C2=O)C[C@@](O)(C(=O)CO)C[C@@H]3O[C@H]1C[C@H](NC(=O)[C@H](CC(C)C)NC(=O)[C@H](CC(N)=O)NC(=O)[C@H](C)NC(=O)[C@H](C)NC(=O)[C@H](CCC(=O)O)NC(=O)CCOCCOCCN2C(=O)C=CC2=O)[C@H](O)[C@H](C)O1 [QHL-021-DOX] (X3-EAANL-{Doxorubicin(3'-N)}), the “Inhibition rate of M2 macrophages” value (M2 macrophages) was 68.6%.
COc1cccc2c1C(=O)c1c(O)c3c(c(O)c1C2=O)C[C@@](O)(C(=O)CO)C[C@@H]3O[C@H]1C[C@H](NC(=O)[C@H](CC(C)C)NC(=O)[C@H](CC(N)=O)NC(=O)[C@H](C)NC(=O)[C@H](C)NC(=O)[C@H](CCC(=O)O)NC(=O)CCCCCN2C(=O)C=CC2=O)[C@H](O)[C@H](C)O1 [QHL-117-DOX] ({Hexanoyl(6-maleimido)}-EAANL-{Doxorubicin(3'-N)}) showed an inhibition in vivo at 36 µmol/kg (HT1080 tumors; HT-1080, iv, 672 h) of 100% and an inhibition in vivo at 54 µmol/kg [2, 4] of 100%.
With CC(NC(=O)CCOCCOCCOCCNC(=O)CCN1C(=O)C=CC1=O)C(=O)NC(C)C(=O)NC(CC(N)=O)C(=O)Nc1ccc(COC(=O)N2CC3(C2)C(=O)[O][Pt-2]([NH3+])([NH3+])[O]C3=O)cc1 (centres unmarked) [QHL-089-N-CBP] the “Inhibition rate of M2 macrophages” value (M2 macrophages) was 97.4% and the solubility [1] was over 10000 µg/mL.
For COc1cccc2c1C(=O)c1c(O)c3c(c(O)c1C2=O)C[C@@](O)(C(=O)CO)C[C@@H]3O[C@H]1C[C@H](NC(=O)[C@H](CC(C)C)NC(=O)[C@H](CC(N)=O)NC(=O)[C@H](C)NC(=O)[C@H](C)NC(=O)CCOCCOCCOCCN2C(=O)C=CC2=O)[C@H](O)[C@H](C)O1 [QHL-010-DOX] (X1-AANL-{Doxorubicin(3'-N)}), the “Tumor volume (mm^3) Day 28” value (HT1080 tumors; [3]) was 0 mm^3, the inhibition in vivo at 36 µmol/kg (HT1080 tumors; HT-1080, iv, 672 h) was 100% and the “growth inhibition of tumor, outcome in words” value (HT1080 tumors; compared with equimolar dose AANL-DOX) was “the tumor disappeared”. For the same molecule, the “Tumor volume (mm^3) Day 28” value ([2]; 54 umol/kg IV once a week for 4 weeks) was 0 mm^3 and the inhibition in vivo at 54 µmol/kg [2, 4] was 100%.
In the case of C[C@H](NC(=O)CCOCCOCCOCCNC(=O)CCN1C(=O)C=CC1=O)C(=O)N[C@@H](C)C(=O)N[C@H](CC(N)=O)C(=O)N[C@@H](Cc1cc(I)c(Oc2ccc(O)c(I)c2)c(I)c1)C(=O)O [QHL-158-T3] ({Propanoyl(3-maleimido)-PEG3}-AA[dN][Thyronine(3,5,3'-I3)]-OH), the solubility [1] was over 10000 µg/mL, the “Change from normal group HDL-C” value (NAFLD model mice; serum HDL-C) was 91.9% and the “Change from normal group LDL-C” value (NAFLD model mice; serum LDL-C) was 103.6%.
For CC(NC(=O)CCOCCOCCOCCOCCOCCOCCNC(=O)CCN1C(=O)C=CC1=O)C(=O)NC(C)C(=O)NC(CC(N)=O)C(=O)Nc1ccc(COC(=O)N2CC3(C2)C(=O)[O][Pt-2]([NH3+])([NH3+])[O]C3=O)cc1 (centres unmarked) [QHL-095-N-CBP], the “Inhibition rate of M2 macrophages” value (M2 macrophages) was 68.7% and the solubility [1] was over 10000 µg/mL.
